Reference: ChEMBL document CHEMBL3045059, “Efficacy of ketoenols on insecticide resistant field populations of two-spotted spider mite Tetranychus urticae and sweet potato whitefly Bemisia tabaci from Greece” (2012)
≈ marks a conversion by molar mass, not a printed value.

Legend:
Format in all cases: functional
[1] = tested on: Tetranychus urticae; assay: Resistance ratio, ratio of LC50 for adult Tetranychus urticae (two-spotted spider mite) laboratory strain GSS to LC50 for adult Tetranychus urticae laboratory strain SAMB measured after 24 hr
[2] = tested on: Tetranychus urticae; assay: Resistance ratio, ratio of LC50 for adult Tetranychus urticae (two-spotted spider mite) field population TU4 to LC50 for adult Tetranychus urticae laboratory strain SAMB measured after 24 hr
[3] = tested on: Tetranychus urticae; assay: Resistance ratio, ratio of LC50 for adult Tetranychus urticae (two-spotted spider mite) greenhouse population TU3 to LC50 for adult Tetranychus urticae laboratory strain SAMB measured after 24 hr
[4] = tested on: Tetranychus urticae; assay: Acaricidal activity against adult Tetranychus urticae (two-spotted spider mite) greenhouse population TU3 in bean leaves assessed as mortality applied at 1 bar pressure measured after 24 hr; conditions: TU3, 24 h
[5] = tested on: Tetranychus urticae; assay: Acaricidal activity against adult Tetranychus urticae (two-spotted spider mite) greenhouse population TU7 in bean leaves assessed as mortality applied at 1 bar pressure measured after 24 hr; conditions: TU7, 24 h
[6] = tested on: Tetranychus urticae; assay: Resistance ratio, ratio of LC50 for adult Tetranychus urticae (two-spotted spider mite) greenhouse population TU1 to LC50 for adult Tetranychus urticae laboratory strain SAMB measured after 24 hr
[7] = tested on: Tetranychus urticae; assay: Acaricidal activity against adult Tetranychus urticae (two-spotted spider mite) greenhouse population TU1 in bean leaves assessed as mortality applied at 1 bar pressure measured after 24 hr; conditions: TU1, 24 h
[8] = tested on: Tetranychus urticae; assay: Acaricidal activity against adult Tetranychus urticae (two-spotted spider mite) field population TU6 in bean leaves assessed as mortality applied at 1 bar pressure measured after 24 hr; conditions: TU6, 24 h
[9] = tested on: Tetranychus urticae; assay: Resistance ratio, ratio of LC50 for adult Tetranychus urticae (two-spotted spider mite) field population TU2 to LC50 for adult Tetranychus urticae laboratory strain SAMB measured after 24 hr
[10] = tested on: Tetranychus urticae; assay: Acaricidal activity against adult Tetranychus urticae (two-spotted spider mite) greenhouse population TU11 in bean leaves assessed as mortality applied at 1 bar pressure measured after 24 hr; conditions: TU11, 24 h
[11] = tested on: Tetranychus urticae; assay: Acaricidal activity against adult Tetranychus urticae (two-spotted spider mite) field population TU12 in bean leaves assessed as mortality applied at 1 bar pressure measured after 24 hr; conditions: TU12, 24 h
[12] = tested on: Tetranychus urticae; assay: Resistance ratio, ratio of LC50 for adult Tetranychus urticae (two-spotted spider mite) field population TU6 to LC50 for adult Tetranychus urticae laboratory strain SAMB measured after 24 hr
[13] = tested on: Tetranychus urticae; assay: Acaricidal activity against adult Tetranychus urticae (two-spotted spider mite) field population TU2 in bean leaves assessed as mortality applied at 1 bar pressure measured after 24 hr; conditions: TU2, 24 h
[14] = tested on: Tetranychus urticae; assay: Resistance ratio, ratio of LC50 for adult Tetranychus urticae (two-spotted spider mite) field population TU12 to LC50 for adult Tetranychus urticae laboratory strain SAMB measured after 24 hr
[15] = tested on: Tetranychus urticae; assay: Resistance ratio, ratio of LC50 for adult Tetranychus urticae (two-spotted spider mite) greenhouse population TU9 to LC50 for adult Tetranychus urticae laboratory strain SAMB measured after 24 hr
[16] = tested on: Tetranychus urticae; assay: Acaricidal activity against adult Tetranychus urticae (two-spotted spider mite) greenhouse population TU9 in bean leaves assessed as mortality applied at 1 bar pressure measured after 24 hr; conditions: TU9, 24 h
[17] = tested on: Tetranychus urticae; assay: Acaricidal activity against adult Tetranychus urticae (two-spotted spider mite) field population TU4 in bean leaves assessed as mortality applied at 1 bar pressure measured after 24 hr; conditions: TU4, 24 h
[18] = tested on: Tetranychus urticae; assay: Acaricidal activity against adult Tetranychus urticae (two-spotted spider mite) greenhouse population TU5 in bean leaves assessed as mortality applied at 1 bar pressure measured after 24 hr; conditions: TU5, 24 h
[19] = tested on: Tetranychus urticae; assay: Resistance ratio, ratio of LC50 for adult Tetranychus urticae (two-spotted spider mite) greenhouse population TU7 to LC50 for adult Tetranychus urticae laboratory strain SAMB measured after 24 hr
[20] = tested on: Tetranychus urticae; assay: Resistance ratio, ratio of LC50 for adult Tetranychus urticae (two-spotted spider mite) greenhouse population TU5 to LC50 for adult Tetranychus urticae laboratory strain SAMB measured after 24 hr
[21] = tested on: Tetranychus urticae; assay: Acaricidal activity against adult Tetranychus urticae (two-spotted spider mite) laboratory strain GSS in bean leaves assessed as mortality applied at 1 bar pressure measured after 24 hr
[22] = tested on: Tetranychus urticae; assay: Resistance ratio, ratio of LC50 for adult Tetranychus urticae (two-spotted spider mite) greenhouse population TU11 to LC50 for adult Tetranychus urticae laboratory strain SAMB measured after 24 hr
[23] = tested on: Tetranychus urticae; assay: Acaricidal activity against adult Tetranychus urticae (two-spotted spider mite) laboratory strain SAMB in bean leaves assessed as mortality applied at 1 bar pressure measured after 24 hr
[24] = tested on: Tetranychus urticae; assay: Acaricidal activity against adult Tetranychus urticae (two-spotted spider mite) greenhouse population TU1 in bean leaves assessed as mortality applied at 1 bar pressure measured after 48 hr; conditions: TU1, 48 h
[25] = tested on: Tetranychus urticae; assay: Resistance ratio, ratio of LC50 for adult Tetranychus urticae (two-spotted spider mite) greenhouse population TU7 to LC50 for adult Tetranychus urticae laboratory strain SAMB measured after 48 hr
[26] = tested on: Tetranychus urticae; assay: Resistance ratio, ratio of LC50 for adult Tetranychus urticae (two-spotted spider mite) field population TU6 to LC50 for adult Tetranychus urticae laboratory strain SAMB measured after 48 hr
[27] = tested on: Tetranychus urticae; assay: Acaricidal activity against adult Tetranychus urticae (two-spotted spider mite) field population TU2 in bean leaves assessed as mortality applied at 1 bar pressure measured after 48 hr; conditions: TU2, 48 h
[28] = tested on: Tetranychus urticae; assay: Resistance ratio, ratio of LC50 for adult Tetranychus urticae (two-spotted spider mite) laboratory strain GSS to LC50 for adult Tetranychus urticae laboratory strain SAMB measured after 48 hr
[29] = tested on: Tetranychus urticae; assay: Resistance ratio, ratio of LC50 for adult Tetranychus urticae (two-spotted spider mite) greenhouse population TU1 to LC50 for adult Tetranychus urticae laboratory strain SAMB measured after 48 hr
[30] = tested on: Tetranychus urticae; assay: Acaricidal activity against adult Tetranychus urticae (two-spotted spider mite) laboratory strain SAMB in bean leaves assessed as mortality applied at 1 bar pressure measured after 48 hr
[31] = tested on: Tetranychus urticae; assay: Resistance ratio, ratio of LC50 for adult Tetranychus urticae (two-spotted spider mite) field population TU12 to LC50 for adult Tetranychus urticae laboratory strain SAMB measured after 48 hr
[32] = tested on: Tetranychus urticae; assay: Resistance ratio, ratio of LC50 for adult Tetranychus urticae (two-spotted spider mite) field population TU2 to LC50 for adult Tetranychus urticae laboratory strain SAMB measured after 48 hr
[33] = tested on: Tetranychus urticae; assay: Resistance ratio, ratio of LC50 for adult Tetranychus urticae (two-spotted spider mite) field population TU4 to LC50 for adult Tetranychus urticae laboratory strain SAMB measured after 48 hr
[34] = tested on: Tetranychus urticae; assay: Acaricidal activity against adult Tetranychus urticae (two-spotted spider mite) greenhouse population TU5 in bean leaves assessed as mortality applied at 1 bar pressure measured after 48 hr; conditions: TU5, 48 h
[35] = tested on: Tetranychus urticae; assay: Resistance ratio, ratio of LC50 for adult Tetranychus urticae (two-spotted spider mite) greenhouse population TU5 to LC50 for adult Tetranychus urticae laboratory strain SAMB measured after 48 hr
[36] = tested on: Tetranychus urticae; assay: Resistance ratio, ratio of LC50 for adult Tetranychus urticae (two-spotted spider mite) greenhouse population TU3 to LC50 for adult Tetranychus urticae laboratory strain SAMB measured after 48 hr
[37] = tested on: Tetranychus urticae; assay: Acaricidal activity against adult Tetranychus urticae (two-spotted spider mite) field population TU6 in bean leaves assessed as mortality applied at 1 bar pressure measured after 48 hr; conditions: TU6, 48 h
[38] = tested on: Tetranychus urticae; assay: Resistance ratio, ratio of LC50 for adult Tetranychus urticae (two-spotted spider mite) greenhouse population TU11 to LC50 for adult Tetranychus urticae laboratory strain SAMB measured after 48 hr
[39] = tested on: Tetranychus urticae; assay: Acaricidal activity against adult Tetranychus urticae (two-spotted spider mite) greenhouse population TU3 in bean leaves assessed as mortality applied at 1 bar pressure measured after 48 hr; conditions: TU3, 48 h
[40] = tested on: Tetranychus urticae; assay: Acaricidal activity against adult Tetranychus urticae (two-spotted spider mite) greenhouse population TU11 in bean leaves assessed as mortality applied at 1 bar pressure measured after 48 hr; conditions: TU11, 48 h
[41] = tested on: Tetranychus urticae; assay: Acaricidal activity against adult Tetranychus urticae (two-spotted spider mite) greenhouse population TU9 in bean leaves assessed as mortality applied at 1 bar pressure measured after 48 hr; conditions: TU9, 48 h
[42] = tested on: Tetranychus urticae; assay: Acaricidal activity against adult Tetranychus urticae (two-spotted spider mite) field population TU12 in bean leaves assessed as mortality applied at 1 bar pressure measured after 48 hr; conditions: TU12, 48 h
[43] = tested on: Tetranychus urticae; assay: Resistance ratio, ratio of LC50 for adult Tetranychus urticae (two-spotted spider mite) greenhouse population TU9 to LC50 for adult Tetranychus urticae laboratory strain SAMB measured after 48 hr
[44] = tested on: Tetranychus urticae; assay: Acaricidal activity against adult Tetranychus urticae (two-spotted spider mite) greenhouse population TU7 in bean leaves assessed as mortality applied at 1 bar pressure measured after 48 hr; conditions: TU7, 48 h
[45] = tested on: Tetranychus urticae; assay: Acaricidal activity against adult Tetranychus urticae (two-spotted spider mite) field population TU4 in bean leaves assessed as mortality applied at 1 bar pressure measured after 48 hr; conditions: TU4, 48 h
[46] = tested on: Tetranychus urticae; assay: Acaricidal activity against adult Tetranychus urticae (two-spotted spider mite) laboratory strain GSS in bean leaves assessed as mortality applied at 1 bar pressure measured after 48 hr

## CC(C)(C)c1ccc(CSc2cnn(C(C)(C)C)c(=O)c2Cl)cc1 [PYRIDABEN]
[1]
  RatioLC50: 0.7
[2]
  RatioLC50: 4
[3]
  RatioLC50: 18
[4]
  LC50: 117 µg/mL (≈ 321 µM)
[5]
  LC50: 221 µg/mL (≈ 606 µM)
[6]
  RatioLC50: 4.5
[7]
  LC50: 29 µg/mL (≈ 79.5 µM)
[8]
  LC50: 16 µg/mL (≈ 43.8 µM)
[9]
  RatioLC50: 11
[10]
  LC50: 248 µg/mL (≈ 680 µM)
[11]
  LC50: 62 µg/mL (≈ 170 µM)
[12]
  RatioLC50: 2.6
[13]
  LC50: 71 µg/mL (≈ 195 µM)
[14]
  RatioLC50: 9.8
[15]
  RatioLC50: 26
[16]
  LC50: 166 µg/mL (≈ 455 µM)
[17]
  LC50: 26 µg/mL (≈ 71.2 µM)
[18]
  LC50: 38 µg/mL (≈ 104 µM)
[19]
  RatioLC50: 34
[20]
  RatioLC50: 5.9
[21]
  LC50: 4.4 µg/mL (≈ 12.1 µM)
[22]
  RatioLC50: 39
[23]
  LC50: 6.4 µg/mL (≈ 17.5 µM)

## Cc1c(COC(=O)[C@@H]2[C@H](/C=C(\Cl)C(F)(F)F)C2(C)C)cccc1-c1ccccc1 (relative stereo) [BIFENTHRIN]
[24]
  LC50: 115 µg/mL (≈ 272 µM)
[25]
  RatioLC50: 8413
[26]
  RatioLC50: 0.9
[27]
  LC50: 42 µg/mL (≈ 99.3 µM)
[28]
  RatioLC50: 1.5
[29]
  RatioLC50: 13
[30]
  LC50: 8.9 µg/mL (≈ 21 µM)
[31]
  RatioLC50: 9.5
[32]
  RatioLC50: 4.7
[33]
  RatioLC50: 351
[34]
  LC50: 45 µg/mL (≈ 106 µM)
[35]
  RatioLC50: 5
[36]
  RatioLC50: 83
[37]
  LC50: 8.5 µg/mL (≈ 20.1 µM)
[38]
  RatioLC50: 19
[39]
  LC50: 741 µg/mL (≈ 1750 µM)
[40]
  LC50: 168 µg/mL (≈ 397 µM)
[41]
  LC50: 112 µg/mL (≈ 265 µM)
[42]
  LC50: 85 µg/mL (≈ 201 µM)
[43]
  RatioLC50: 12
[44]
  LC50: 75100 µg/mL (≈ 178000 µM)
[45]
  LC50: 3140 µg/mL (≈ 7420 µM)
[46]
  LC50: 13 µg/mL (≈ 30.7 µM)
